Test results published in patent publication US9808466B2, “Macrocyclic compounds as protein kinase inhibitors” (Fundación Centro Nacional de Investigaciones Oncologicas …, priority 2011, dated 2017).
Read-outs that look alike come from different tables or passages of the source.

How the values were obtained:
mTOR = target: T1, mTOR (Homo sapiens, UniProt P42345); assay: mTOR assay (LanthaScreen kinase activity assay); assay type: biochemical
T1 construct: purchased Invitrogen PV4754
Experimental: The enzymatic mTOR activity was measured using a LanthaScreen™ kinase activity assay (Invitrogen). The enzyme was purchased from Invitrogen (PV4754), as well as the GFP-labeled substrate (4EBP1-GFP; PV4759) and the Tb-anti-p4EBP1(pThr46) antibody (PV4757). The assay was performed in 50 mM HEPES buffer, pH 7.5, containing 1.5 mM MnCl2, 10 mM MgCl2, 1 mM EGTA, 2.5 mM DTT and 0.01% Tween-20. The concentration of the assay components were the following: 0.24 nM mTOR kinase, 400 nM 4EBP1-GFP, […] and serial dilutions of the compound (inhibitor) to be evaluated. After 1 h incubation at room temperature, 20 mM EDTA was used to stop the reaction and terbium-labeled antibody (4 nM) added to detect phosphorylated product. The antibody associates with the phosphorylated product resulting in an increased TR-FRET value. The TR-FRET value (a dimensionless number) was calculated as the ratio of the acceptor signal (GFP, emission at 520 nm) to the donor signal (terbium, emission at 495 nm). Values were plotted against the inhibitor concentration and fitted to a sigmoid dose-response curve using GraphPad software.

PI3K (p110α/p85α) = target: T2, PI3K (p110α/p85α) (Homo sapiens, UniProt P42336); assay: PI3K activity assay (ADP Hunter Plus); assay type: biochemical
T2 construct: purchased Carna Biosciences 07CBS-0402A
Experimental: The kinase activity was measured by using the commercial ADP Hunter™ Plus assay available from DiscoveRx (#33-016), which is a homogeneous assay to measure the accumulation of ADP, a universal product of kinase activity. […] Reaction was carried out for 1 hour at 25° C. Reagent A and B were sequentially added to the wells and plates were incubated for 30 min at 37° C. Fluorescence counts were read in a Victor instrument (Perkin Elmer) with the recommended settings (544 and 580 nm as excitation and emission wavelengths, respectively). Values were normalized against the control activity included for each enzyme (i.e., 100% PI3 kinase activity, without compound). These values were plotted against the inhibitor concentration and were fit to a sigmoid dose-response curve by using the Graphad software.

PIM-1 = target: T3, PIM-1 (Homo sapiens, UniProt P11309); assay: PIM-1 biochemical assay (ADP Hunter)
T3 construct: histidine tag (C); made in house
From the text: The biochemical assay to measure PIM-1 activity relies on the ADP Hunter assay kit (DiscoveRx Corp., Cat. #90-0077), that determines the amount of ADP as direct product of the kinase enzyme activity.
The enzyme has been expressed and purified in-house as a recombinant human protein with a C-terminal histidine tag. The protein is active and stable.
Assay conditions were as indicated by the kit manufacturers with the following adaptations for the kinase activity step: • Kinase assay buffer and assay volume stay as recommended (15 mM HEPES, pH 7.4, 20 mM NaCl, 1 mM EGTA, 0.02% Tween 20, 10 mM MgCl2 and 0.1 mg/ml bovine γ-globulins/75 μl assay volume) • Incubation time and temperature: 60 min at 30° C. • PIM-1 concentration: 50 pg/μl • ATP concentration: 100 μM • PIM-1 substrate peptide: PIMtide ([…]) (SEQIDNO. 1) • Peptide concentration: 60 μM • Positive control for kinase activity inhibition: 1-10 μM Staurosporine • DMSO concentration have to stay below 2% during the kinase reaction
Assays were performed in either 96 or 384-well plates. The final outcome of the coupled reactions provided by the kit is the release of the fluorescent product Resorufin and has been measured with a multilabel HTS counter VICTOR V (PerkinElmer) using an excitation filter at 544 nm and an emission filter at 580 nm.

[1] = read-out: mTOR activity, IC50 (semi-quantitative class)
[2] = read-out: PI3K alpha activity, IC50 (semi-quantitative class)
[3] = PIM1, read-out: PIM-1 activity, IC50 (semi-quantitative class)
[4] = PIM1, read-out: PIM-1 actual IC50 (in parentheses)
[5] = read-out: mTOR actual IC50 (in parentheses)
[6] = read-out: PI3K alpha actual IC50 (in parentheses)
[7] = read-out: mTOR activity (semi-quantitative IC50)
[8] = read-out: PI3K alpha activity (semi-quantitative IC50)
[9] = read-out: PIM-1 activity (semi-quantitative IC50)
[10] = read-out: PIM-1 IC50 (in parentheses)
[11] = read-out: mTOR IC50 (in parentheses)
[12] = read-out: PI3K alpha IC50 (in parentheses)

T1 sequence (P42345 1360-2549 limits assumed): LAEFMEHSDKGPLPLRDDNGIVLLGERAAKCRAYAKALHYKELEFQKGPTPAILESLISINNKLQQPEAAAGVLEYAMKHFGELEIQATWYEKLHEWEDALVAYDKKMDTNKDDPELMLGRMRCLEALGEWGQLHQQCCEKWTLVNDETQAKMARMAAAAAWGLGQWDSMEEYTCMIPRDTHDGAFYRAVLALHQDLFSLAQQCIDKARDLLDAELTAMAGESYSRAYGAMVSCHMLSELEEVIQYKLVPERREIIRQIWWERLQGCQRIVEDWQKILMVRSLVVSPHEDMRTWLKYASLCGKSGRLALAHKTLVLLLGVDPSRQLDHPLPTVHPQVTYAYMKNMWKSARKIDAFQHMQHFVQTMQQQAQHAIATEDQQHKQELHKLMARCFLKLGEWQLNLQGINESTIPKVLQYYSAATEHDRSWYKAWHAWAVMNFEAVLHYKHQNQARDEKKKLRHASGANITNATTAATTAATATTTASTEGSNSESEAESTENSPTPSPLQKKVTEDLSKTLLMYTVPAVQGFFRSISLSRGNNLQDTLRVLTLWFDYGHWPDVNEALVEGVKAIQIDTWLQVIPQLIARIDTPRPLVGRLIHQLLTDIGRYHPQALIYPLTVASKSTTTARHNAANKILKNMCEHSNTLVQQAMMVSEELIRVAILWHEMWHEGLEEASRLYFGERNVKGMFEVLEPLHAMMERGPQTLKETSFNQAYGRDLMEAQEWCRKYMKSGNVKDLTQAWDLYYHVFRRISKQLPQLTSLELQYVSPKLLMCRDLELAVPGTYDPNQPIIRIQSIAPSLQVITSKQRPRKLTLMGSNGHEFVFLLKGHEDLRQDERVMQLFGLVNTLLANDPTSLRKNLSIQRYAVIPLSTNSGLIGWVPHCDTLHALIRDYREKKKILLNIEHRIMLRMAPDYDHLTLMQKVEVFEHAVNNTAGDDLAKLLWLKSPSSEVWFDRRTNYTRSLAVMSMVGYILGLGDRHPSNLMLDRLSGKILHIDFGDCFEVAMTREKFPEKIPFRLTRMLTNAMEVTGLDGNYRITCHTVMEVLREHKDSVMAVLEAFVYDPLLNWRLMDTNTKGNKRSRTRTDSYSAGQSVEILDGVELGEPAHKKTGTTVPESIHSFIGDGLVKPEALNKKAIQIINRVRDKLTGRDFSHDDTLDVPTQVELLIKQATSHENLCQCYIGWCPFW
T2 sequence (P42336 whole entry): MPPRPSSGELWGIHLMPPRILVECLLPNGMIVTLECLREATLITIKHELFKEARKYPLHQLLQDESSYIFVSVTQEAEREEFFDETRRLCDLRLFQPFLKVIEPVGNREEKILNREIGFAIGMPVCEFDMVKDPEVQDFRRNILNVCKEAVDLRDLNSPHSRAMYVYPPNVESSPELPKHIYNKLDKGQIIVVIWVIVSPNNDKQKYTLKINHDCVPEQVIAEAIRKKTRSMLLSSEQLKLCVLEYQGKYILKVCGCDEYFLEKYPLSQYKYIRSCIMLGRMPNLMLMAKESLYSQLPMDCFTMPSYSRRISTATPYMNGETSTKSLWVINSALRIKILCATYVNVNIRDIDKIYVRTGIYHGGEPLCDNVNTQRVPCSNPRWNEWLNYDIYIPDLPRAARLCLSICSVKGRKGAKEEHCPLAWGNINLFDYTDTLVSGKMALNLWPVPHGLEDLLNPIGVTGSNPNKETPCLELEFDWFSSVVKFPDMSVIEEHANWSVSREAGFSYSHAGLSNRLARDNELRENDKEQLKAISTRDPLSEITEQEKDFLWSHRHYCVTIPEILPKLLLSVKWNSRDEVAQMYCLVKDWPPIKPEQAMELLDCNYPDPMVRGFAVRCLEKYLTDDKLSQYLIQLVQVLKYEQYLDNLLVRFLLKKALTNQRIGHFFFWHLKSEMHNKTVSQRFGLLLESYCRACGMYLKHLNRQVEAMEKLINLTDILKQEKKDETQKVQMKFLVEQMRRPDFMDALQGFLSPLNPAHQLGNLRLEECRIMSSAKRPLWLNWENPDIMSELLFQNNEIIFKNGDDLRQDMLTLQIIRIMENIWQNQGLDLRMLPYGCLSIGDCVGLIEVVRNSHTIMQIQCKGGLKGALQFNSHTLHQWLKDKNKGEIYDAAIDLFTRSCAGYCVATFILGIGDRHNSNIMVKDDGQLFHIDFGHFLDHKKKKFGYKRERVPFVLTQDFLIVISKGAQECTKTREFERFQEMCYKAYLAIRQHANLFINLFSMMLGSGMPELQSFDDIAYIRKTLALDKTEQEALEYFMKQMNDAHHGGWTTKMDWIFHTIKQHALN
T2 sequence (P27986 whole entry partner): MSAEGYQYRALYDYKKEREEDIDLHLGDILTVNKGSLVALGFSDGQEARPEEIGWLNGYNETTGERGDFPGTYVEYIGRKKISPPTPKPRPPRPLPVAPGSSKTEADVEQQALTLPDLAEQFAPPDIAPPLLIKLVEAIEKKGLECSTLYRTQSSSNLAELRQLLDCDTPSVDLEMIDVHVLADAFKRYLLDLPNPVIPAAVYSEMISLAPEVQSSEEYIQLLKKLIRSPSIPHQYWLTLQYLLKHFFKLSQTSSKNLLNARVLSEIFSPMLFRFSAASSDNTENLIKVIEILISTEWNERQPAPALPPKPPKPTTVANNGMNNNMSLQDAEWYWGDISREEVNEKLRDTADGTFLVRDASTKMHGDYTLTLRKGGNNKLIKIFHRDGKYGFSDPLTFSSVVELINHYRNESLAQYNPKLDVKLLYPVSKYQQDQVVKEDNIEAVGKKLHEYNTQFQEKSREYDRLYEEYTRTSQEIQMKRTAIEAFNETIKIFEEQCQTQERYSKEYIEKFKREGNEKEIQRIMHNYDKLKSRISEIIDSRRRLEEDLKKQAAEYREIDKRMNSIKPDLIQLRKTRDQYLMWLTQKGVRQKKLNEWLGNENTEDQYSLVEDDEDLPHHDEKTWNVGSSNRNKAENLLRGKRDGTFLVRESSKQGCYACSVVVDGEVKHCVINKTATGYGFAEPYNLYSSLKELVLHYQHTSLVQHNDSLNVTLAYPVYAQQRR
T3 sequence (P11309 whole entry): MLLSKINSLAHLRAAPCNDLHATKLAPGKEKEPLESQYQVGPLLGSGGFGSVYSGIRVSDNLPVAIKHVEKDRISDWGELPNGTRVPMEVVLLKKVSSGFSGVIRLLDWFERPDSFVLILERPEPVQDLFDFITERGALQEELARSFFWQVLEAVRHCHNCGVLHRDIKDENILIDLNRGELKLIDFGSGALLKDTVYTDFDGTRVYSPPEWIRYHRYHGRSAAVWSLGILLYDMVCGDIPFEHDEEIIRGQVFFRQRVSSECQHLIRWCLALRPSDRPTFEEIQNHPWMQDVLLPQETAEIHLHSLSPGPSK

Row | Structure (SMILES) | IC50 (mTOR; [1]) | IC50 (PI3K (p110α/p85α); [2]) | IC50 (PIM-1; [3]) | IC50 (mTOR; [7]) | IC50 (PI3K (p110α/p85α); [8]) | IC50 (PIM-1; [9]) | other results
1 | COc1ncc2cc1NS(=O)(=O)c1cccc(c1)C(=O)NCCn1cc(cn1)-c1nc(C(C)C)nc3c1SC2=C3 [compound 61] | > 1000 nM | > 1000 nM | > 1000 nM | – | – | – | –
2 | COc1ncc2cc1NS(=O)(=O)c1cccc(c1)C(=O)NCc1cncc(c1)-c1ccnc3c1SC2=C3 [compound 62] | > 1000 nM | 100 to 1000 nM | < 100 nM | – | – | – | IC50 (PIM-1; [4]): 31 nM
3 | COc1ncc2cc1NS(=O)(=O)c1cccc(c1)C(=O)NC[C@H]1CN(CCO1)c1ncnc3c1SC2=C3 [compound 64] | > 1000 nM | > 1000 nM | 100 to 1000 nM | – | – | – | –
4 | COc1ncc2cc1NS(=O)(=O)c1cccc(c1)C(=O)NCc1cc(ccc1F)-c1ncnc3c1SC2=C3 [compound 65] | > 1000 nM | 100 to 1000 nM | > 1000 nM | – | – | – | –
5 | COc1ncc2cc1NS(=O)(=O)c1cccc(c1)C(=O)NC[C@@H]1CN(CCO1)c1ncnc3c1SC2=C3 [compound 66] | > 1000 nM | 100 to 1000 nM | < 100 nM | – | – | – | IC50 (PIM-1; [4]): 88 nM
6 | COc1ncc2cc1NS(=O)(=O)c1cc(c(F)cc1F)C(=O)NCc1cccc(c1)-c1cnn3ccc-2nc13 [compound 67] | < 100 nM | < 100 nM | > 1000 nM | – | – | – | IC50 (mTOR; [5]): 12 nM; IC50 (PI3K (p110α/p85α); [6]): 0.5 nM
7 | COc1ncc2cc1NS(=O)(=O)c1cccc(c1)C(=O)NCC1=CC=C(O1)c1ncnc3c1SC2=C3 [compound 69] | > 1000 nM | 100 to 1000 nM | 100 to 1000 nM | – | – | – | –
8 | COc1ncc2cc1NS(=O)(=O)c1cccc(c1)C(=O)NCCCNc1ncnc3c1SC2=C3 [compound 70] | > 1000 nM | > 1000 nM | 100 to 1000 nM | – | – | – | –
9 | COc1ncc2cc1NS(=O)(=O)c1cc(c(F)cc1F)C(=O)NCc1cncc(c1)-c1ccnc3ccc-2nc13 [compound 71] | < 100 nM | < 100 nM | > 1000 nM | – | – | – | IC50 (mTOR; [5]): 25 nM; IC50 (PI3K (p110α/p85α); [6]): 0.15 nM
10 | COc1ncc2cc1NS(=O)(=O)c1cccc(c1)C(=O)NCc1cc(F)cc(c1)-c1ncnc3c1SC2=C3 [compound 72] | > 1000 nM | > 1000 nM | 100 to 1000 nM | – | – | – | –
11 | COc1ncc2cc1NS(=O)(=O)c1cccc(c1)C(=O)NCC1=CC=C(S1)c1c(C#N)cnc3c1SC2=C3 [compound 73] | > 1000 nM | > 1000 nM | < 100 nM | – | – | – | IC50 (PIM-1; [4]): 45 nM
12 | COc1ncc2cc1NS(=O)(=O)c1cccc(c1)C(=O)NCc1csc(c1)-c1ncnc3c1SC2=C3 [compound 77] | > 1000 nM | 100 to 1000 nM | < 100 nM | – | – | – | IC50 (PIM-1; [4]): 17 nM
13 | COc1ncc2cc1NS(=O)(=O)c1cccc(c1)C(=O)NCC1=CC=C(S1)c1ccnc3[nH]c-2cc13 [compound 78] | > 1000 nM | 100 to 1000 nM | 100 to 1000 nM | – | – | – | –
14 | COc1ncc2cc1NS(=O)(=O)c1cccc(c1)C(=O)NCc1nc(cs1)-c1ncnc3c1SC2=C3 [compound 79] | > 1000 nM | 100 to 1000 nM | > 1000 nM | – | – | – | –
15 | COc1ncc2cc1NS(=O)(=O)c1cccc(c1)C(=O)NCC1=CC=C(S1)c1ccnc3c1SC2=C3 [compound 80] | > 1000 nM | 100 to 1000 nM | < 100 nM | – | – | – | IC50 (PIM-1; [4]): 15 nM
16 | COc1ncc2cc1NS(=O)(=O)c1ccc(F)c(c1)C(=O)NCC1=CC=C(S1)c1ncnc3c1SC2=C3 [compound 82] | > 1000 nM | < 100 nM | < 100 nM | – | – | – | IC50 (PI3K (p110α/p85α); [6]): 57 nM; IC50 (PIM-1; [4]): 13 nM
17 | COc1ncc2cc1NS(=O)(=O)c1cccc(c1)C(=O)NC[C@H]1CCCN(C1)c1ncnc3c1SC2=C3 [compound 83] | > 1000 nM | > 1000 nM | 100 to 1000 nM | – | – | – | –
18 | COc1ncc2cc1NS(=O)(=O)c1cccc(c1)C(=O)NC[C@@H]1CCCN(C1)c1ncnc3c1SC2=C3 [compound 84] | > 1000 nM | > 1000 nM | 100 to 1000 nM | – | – | – | –
19 | O=C1NCc2cccc(c2)-c2cnn3ccc(nc23)-c2cnc(O)c(c2)NS(=O)(=O)c2cccc1c2 [compound 85] | – | – | – | > 1000 nM | 100 to 1000 nM | > 1000 nM | –
20 | COc1ncc2cc1NS(=O)(=O)c1cccc(c1)C(=O)NC[C@@H]1CCN(C1)c1ncnc3c1SC2=C3 [compound 86] | – | – | – | > 1000 nM | > 1000 nM | 100 to 1000 nM | –
21 | COc1ncc2cc1NS(=O)(=O)c1cccc(c1)C(=O)NC[C@H]1CCN(C1)c1ncnc3c1SC2=C3 [compound 87] | – | – | – | > 1000 nM | > 1000 nM | 100 to 1000 nM | –
22 | COc1ncc2cc1NS(=O)(=O)c1cccc(c1)C(=O)NCC1=C(C)C=C(S1)c1ncnc3c1SC2=C3 [compound 88] | – | – | – | > 1000 nM | 100 to 1000 nM | < 100 nM | IC50 (PIM-1; [10]): 69 nM
23 | COc1ncc2cc1NS(=O)(=O)c1cccc(c1)C(=O)NCc1ccncc1-c1ncnc3c1SC2=C3 [compound 89] | – | – | – | > 1000 nM | > 1000 nM | > 1000 nM | –
24 | COc1ncc2cc1NS(=O)(=O)c1ccc(F)c(c1)C(=O)NCC1=CC=C(S1)c1ncnc3c1SC2=C3C [compound 90] | – | – | – | < 100 nM | < 100 nM | < 100 nM | IC50 (mTOR; [11]): 56 nM; IC50 (PI3K (p110α/p85α); [12]): 1.8 nM; IC50 (PIM-1; [10]): 27 nM
25 | COc1ncc2cc1NS(=O)(=O)c1cccc(c1)C(=O)NC[C@@H]1CN(CCO1)c1ncnc3c1SC2=C3C [compound 91] | – | – | – | 100 to 1000 nM | < 100 nM | < 100 nM | IC50 (PI3K (p110α/p85α); [12]): 10 nM; IC50 (PIM-1; [10]): 47 nM
26 | COc1ncc2cc1NS(=O)(=O)c1cccc(c1)C(=O)NCc1cc(F)cc(c1)-c1ncnc3c1SC2=C3C [compound 92] | – | – | – | > 1000 nM | < 100 nM | > 1000 nM | IC50 (PI3K (p110α/p85α); [12]): 15 nM
27 | COCCOc1ccc2cc1C(=O)NCC1=CC=C(S1)c1ncnc3c1SC(=C3)c1cnc(OC)c(c1)NS2(=O)=O [compound 93] | – | – | – | < 100 nM | 100 to 1000 nM | > 1000 nM | IC50 (mTOR; [11]): 32 nM
28 | COc1ncc2cc1NS(=O)(=O)c1cccc(c1)C(=O)NC[C@@H]1CCN(C1)c1ncnc3c1SC2=C3C [compound 94] | – | – | – | > 1000 nM | < 100 nM | < 100 nM | IC50 (PI3K (p110α/p85α); [12]): 26 nM; IC50 (PIM-1; [10]): 65 nM
